The target of experiment [1] is T1, Ephrin type-B receptor 3 (Homo sapiens) (UniProt P54753).
T1 sequence (whole entry): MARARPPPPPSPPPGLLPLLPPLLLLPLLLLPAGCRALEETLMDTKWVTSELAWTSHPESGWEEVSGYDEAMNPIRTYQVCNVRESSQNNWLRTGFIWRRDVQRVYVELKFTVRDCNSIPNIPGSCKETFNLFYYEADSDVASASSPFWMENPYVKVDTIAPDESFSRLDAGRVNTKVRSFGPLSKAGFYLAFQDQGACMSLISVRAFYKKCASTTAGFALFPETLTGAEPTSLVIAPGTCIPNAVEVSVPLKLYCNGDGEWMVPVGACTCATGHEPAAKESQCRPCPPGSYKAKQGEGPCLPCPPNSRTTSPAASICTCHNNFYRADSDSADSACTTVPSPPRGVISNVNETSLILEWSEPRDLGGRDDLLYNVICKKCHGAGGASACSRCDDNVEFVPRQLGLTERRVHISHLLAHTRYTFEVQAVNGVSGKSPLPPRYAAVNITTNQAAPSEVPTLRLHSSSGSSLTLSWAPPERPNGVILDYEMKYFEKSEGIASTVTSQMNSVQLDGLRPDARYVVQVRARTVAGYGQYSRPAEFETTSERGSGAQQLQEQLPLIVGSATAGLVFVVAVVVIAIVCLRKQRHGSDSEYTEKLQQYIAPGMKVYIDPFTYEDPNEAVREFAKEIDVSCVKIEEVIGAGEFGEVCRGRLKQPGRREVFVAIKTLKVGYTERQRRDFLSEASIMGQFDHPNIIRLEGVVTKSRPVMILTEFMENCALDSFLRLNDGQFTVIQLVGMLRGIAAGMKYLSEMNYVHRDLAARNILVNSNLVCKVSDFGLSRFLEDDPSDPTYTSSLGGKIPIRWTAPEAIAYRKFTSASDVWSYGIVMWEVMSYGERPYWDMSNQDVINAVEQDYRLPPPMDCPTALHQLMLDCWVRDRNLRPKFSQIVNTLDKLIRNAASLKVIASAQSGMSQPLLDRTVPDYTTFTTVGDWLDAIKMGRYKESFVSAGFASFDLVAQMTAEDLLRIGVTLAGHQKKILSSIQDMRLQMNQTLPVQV
The experiment can be described thus: Selectivity interaction (SelectScreen profiling (Invitrogen)) EUB0000607a EPHB3. As to conditions: at 2 µM.

Experiment [2] has as its target Ribosomal protein S6 kinase beta-1 (Homo sapiens, UniProt P23443). The experiment can be described thus: Selectivity interaction (ActivX KiNativ screen (kinase selectivity in THP-1 cell lysates)) EUB0000639a RPS6KB1. The experiment is classed as subcellular. Conditions: lysate.
Another experiment addresses Insulin receptor (Homo sapiens, UniProt P06213). Kind of experiment: Selectivity interaction (Kinase screening (Nanosyn)) EUB0000604a INSR.
For experiment [3], the target named is T2, Tyrosine-protein kinase ITK/TSK (Homo sapiens) (UniProt Q08881).
T2 sequence (whole entry): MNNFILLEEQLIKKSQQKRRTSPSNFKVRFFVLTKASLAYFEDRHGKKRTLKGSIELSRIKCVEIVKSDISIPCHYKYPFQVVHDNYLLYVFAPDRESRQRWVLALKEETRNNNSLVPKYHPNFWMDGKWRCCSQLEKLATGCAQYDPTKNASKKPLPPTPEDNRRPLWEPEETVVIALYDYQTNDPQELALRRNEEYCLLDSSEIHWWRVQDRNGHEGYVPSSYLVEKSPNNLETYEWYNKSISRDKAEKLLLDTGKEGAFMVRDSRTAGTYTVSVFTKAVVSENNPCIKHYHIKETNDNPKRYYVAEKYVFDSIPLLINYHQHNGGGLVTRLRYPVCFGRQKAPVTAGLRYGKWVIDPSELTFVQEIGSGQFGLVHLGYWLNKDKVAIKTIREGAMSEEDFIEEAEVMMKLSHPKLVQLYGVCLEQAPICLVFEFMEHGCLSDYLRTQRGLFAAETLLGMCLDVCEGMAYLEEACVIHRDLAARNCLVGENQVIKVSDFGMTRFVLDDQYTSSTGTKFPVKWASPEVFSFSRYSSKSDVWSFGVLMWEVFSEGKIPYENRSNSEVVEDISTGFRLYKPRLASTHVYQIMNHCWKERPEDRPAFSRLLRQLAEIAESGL
Conditions: at 10 µM.

Experiment [4] concerns the target Phosphatidylinositol 4-phosphate 3-kinase C2 domain-containing subunit beta (Homo sapiens) (UniProt O00750). Kind of experiment: Selectivity interaction (ProQinase) EUB0000171b PIK3C2B.
The target of experiment [5] is DNA (cytosine-5)-methyltransferase 3A (Homo sapiens) (UniProt Q9Y6K1). Kind of experiment: Selectivity interaction (Transferase panel (protein, RNA, and DNA methyltransferases. and EP300 (acetyltransferase))) EUB0000270b DNMT3A.
The target in experiment [6] is T3, Serine/threonine-protein kinase 4 (Homo sapiens) (UniProt Q13043).
T3 sequence (whole entry): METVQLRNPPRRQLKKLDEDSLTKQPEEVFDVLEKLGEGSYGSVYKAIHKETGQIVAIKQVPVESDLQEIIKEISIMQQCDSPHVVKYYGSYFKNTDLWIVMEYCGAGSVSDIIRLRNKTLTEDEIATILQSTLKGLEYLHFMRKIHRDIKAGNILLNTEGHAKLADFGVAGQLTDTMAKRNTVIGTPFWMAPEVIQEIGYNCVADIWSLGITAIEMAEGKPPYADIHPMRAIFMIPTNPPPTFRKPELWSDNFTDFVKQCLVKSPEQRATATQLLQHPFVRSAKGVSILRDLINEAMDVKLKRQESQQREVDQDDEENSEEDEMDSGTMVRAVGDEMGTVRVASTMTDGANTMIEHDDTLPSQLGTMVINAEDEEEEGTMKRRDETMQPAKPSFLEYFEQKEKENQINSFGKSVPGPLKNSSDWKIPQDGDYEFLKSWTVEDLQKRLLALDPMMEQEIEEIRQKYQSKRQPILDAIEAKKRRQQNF
Kind of experiment: Selectivity interaction (Kinase panel (DSF assay)) EUB0001559a STK4. For orientation: Differential scanning fluorimetry follows unfolding on heating by fluorescence.

Experiment [7] has as its target Phosphatidylinositol 4,5-bisphosphate 3-kinase catalytic subunit alpha isoform (Homo sapiens) (UniProt P42336). As to conditions: at 10 µM.

Chain of Ribosomal protein S6 kinase beta-1 (P23443 whole entry, looked up): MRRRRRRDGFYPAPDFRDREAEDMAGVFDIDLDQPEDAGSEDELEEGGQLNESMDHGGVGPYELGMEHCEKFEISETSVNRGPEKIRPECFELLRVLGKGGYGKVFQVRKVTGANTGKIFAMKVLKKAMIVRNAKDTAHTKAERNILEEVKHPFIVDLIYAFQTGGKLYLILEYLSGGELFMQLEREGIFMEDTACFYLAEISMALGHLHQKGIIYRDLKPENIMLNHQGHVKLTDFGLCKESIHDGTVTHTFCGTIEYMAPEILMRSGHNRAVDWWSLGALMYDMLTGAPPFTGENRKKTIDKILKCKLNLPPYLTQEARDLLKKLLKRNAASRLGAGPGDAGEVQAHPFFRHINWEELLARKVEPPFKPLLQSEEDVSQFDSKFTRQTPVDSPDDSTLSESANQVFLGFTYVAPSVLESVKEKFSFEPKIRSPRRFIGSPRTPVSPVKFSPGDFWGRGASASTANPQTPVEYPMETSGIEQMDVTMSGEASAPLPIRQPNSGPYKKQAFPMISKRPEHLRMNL
Chain of DNA (cytosine-5)-methyltransferase 3A (Homo sapiens) (Q9Y6K1 whole entry, looked up): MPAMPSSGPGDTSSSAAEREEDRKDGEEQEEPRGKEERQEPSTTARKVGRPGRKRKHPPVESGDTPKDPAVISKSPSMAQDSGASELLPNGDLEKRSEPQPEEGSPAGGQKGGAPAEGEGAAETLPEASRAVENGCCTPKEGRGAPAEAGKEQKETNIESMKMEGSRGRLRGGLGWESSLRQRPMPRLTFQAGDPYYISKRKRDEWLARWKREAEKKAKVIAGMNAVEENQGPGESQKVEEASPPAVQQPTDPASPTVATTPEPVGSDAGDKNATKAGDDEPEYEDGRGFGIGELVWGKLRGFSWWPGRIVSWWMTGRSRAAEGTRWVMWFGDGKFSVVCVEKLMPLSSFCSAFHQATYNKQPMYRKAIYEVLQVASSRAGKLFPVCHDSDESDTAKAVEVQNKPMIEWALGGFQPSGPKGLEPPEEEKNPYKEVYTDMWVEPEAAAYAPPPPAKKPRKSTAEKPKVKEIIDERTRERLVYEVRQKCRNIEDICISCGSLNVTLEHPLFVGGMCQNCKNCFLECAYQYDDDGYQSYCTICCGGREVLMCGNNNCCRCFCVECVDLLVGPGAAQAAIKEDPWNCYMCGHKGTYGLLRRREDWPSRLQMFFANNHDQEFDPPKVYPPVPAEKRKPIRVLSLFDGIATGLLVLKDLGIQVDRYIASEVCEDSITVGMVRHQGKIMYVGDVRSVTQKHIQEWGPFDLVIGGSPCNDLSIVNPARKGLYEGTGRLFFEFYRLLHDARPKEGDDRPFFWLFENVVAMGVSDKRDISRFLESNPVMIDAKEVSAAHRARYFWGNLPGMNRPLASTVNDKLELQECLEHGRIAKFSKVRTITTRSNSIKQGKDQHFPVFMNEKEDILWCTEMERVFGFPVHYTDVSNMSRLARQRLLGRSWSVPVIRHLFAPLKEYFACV
Chain of Phosphatidylinositol 4-phosphate 3-kinase C2 domain-containing subunit beta (Homo sapiens) (O00750 whole entry, the tested form may be a part): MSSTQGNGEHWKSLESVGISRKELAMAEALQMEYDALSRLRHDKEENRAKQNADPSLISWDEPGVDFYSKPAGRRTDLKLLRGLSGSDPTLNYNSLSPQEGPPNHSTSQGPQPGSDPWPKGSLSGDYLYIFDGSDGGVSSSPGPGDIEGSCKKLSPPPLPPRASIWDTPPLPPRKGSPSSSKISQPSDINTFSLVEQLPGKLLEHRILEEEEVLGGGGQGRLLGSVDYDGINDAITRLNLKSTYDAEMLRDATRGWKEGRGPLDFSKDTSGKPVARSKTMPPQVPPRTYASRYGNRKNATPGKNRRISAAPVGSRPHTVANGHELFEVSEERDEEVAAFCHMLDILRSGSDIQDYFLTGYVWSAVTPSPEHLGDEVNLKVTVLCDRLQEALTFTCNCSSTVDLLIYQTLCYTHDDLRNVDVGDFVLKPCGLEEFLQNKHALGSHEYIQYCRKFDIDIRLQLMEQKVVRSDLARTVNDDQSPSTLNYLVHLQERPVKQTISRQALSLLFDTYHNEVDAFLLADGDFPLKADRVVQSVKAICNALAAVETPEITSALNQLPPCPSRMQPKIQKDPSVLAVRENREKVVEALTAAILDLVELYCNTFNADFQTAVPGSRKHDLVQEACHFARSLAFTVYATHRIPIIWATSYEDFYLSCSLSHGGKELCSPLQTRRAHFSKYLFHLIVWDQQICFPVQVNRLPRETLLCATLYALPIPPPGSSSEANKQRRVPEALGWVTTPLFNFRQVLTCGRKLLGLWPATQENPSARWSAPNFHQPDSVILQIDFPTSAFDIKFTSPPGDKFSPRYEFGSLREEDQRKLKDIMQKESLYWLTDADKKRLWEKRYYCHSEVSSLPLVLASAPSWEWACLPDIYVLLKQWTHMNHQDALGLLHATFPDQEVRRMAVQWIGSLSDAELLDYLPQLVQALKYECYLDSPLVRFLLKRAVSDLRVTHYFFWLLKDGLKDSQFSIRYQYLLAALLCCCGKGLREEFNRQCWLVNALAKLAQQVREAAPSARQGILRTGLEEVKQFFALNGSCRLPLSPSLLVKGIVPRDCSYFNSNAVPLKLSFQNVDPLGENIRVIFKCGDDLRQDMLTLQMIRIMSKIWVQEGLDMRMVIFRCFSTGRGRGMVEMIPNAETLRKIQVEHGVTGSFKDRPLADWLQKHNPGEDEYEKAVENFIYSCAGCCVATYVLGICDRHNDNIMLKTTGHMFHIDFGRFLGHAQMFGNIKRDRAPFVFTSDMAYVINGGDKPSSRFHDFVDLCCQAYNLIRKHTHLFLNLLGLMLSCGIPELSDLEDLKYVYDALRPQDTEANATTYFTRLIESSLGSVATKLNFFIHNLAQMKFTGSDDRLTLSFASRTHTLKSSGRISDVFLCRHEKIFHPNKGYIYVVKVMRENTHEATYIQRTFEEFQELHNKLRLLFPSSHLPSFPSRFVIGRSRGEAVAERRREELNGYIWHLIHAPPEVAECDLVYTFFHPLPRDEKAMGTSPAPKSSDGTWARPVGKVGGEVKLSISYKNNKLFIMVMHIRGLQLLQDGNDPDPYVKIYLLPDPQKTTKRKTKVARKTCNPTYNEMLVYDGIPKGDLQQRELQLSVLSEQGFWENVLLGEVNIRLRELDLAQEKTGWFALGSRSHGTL
Chain of Insulin receptor (P06213 28-758 limits assumed): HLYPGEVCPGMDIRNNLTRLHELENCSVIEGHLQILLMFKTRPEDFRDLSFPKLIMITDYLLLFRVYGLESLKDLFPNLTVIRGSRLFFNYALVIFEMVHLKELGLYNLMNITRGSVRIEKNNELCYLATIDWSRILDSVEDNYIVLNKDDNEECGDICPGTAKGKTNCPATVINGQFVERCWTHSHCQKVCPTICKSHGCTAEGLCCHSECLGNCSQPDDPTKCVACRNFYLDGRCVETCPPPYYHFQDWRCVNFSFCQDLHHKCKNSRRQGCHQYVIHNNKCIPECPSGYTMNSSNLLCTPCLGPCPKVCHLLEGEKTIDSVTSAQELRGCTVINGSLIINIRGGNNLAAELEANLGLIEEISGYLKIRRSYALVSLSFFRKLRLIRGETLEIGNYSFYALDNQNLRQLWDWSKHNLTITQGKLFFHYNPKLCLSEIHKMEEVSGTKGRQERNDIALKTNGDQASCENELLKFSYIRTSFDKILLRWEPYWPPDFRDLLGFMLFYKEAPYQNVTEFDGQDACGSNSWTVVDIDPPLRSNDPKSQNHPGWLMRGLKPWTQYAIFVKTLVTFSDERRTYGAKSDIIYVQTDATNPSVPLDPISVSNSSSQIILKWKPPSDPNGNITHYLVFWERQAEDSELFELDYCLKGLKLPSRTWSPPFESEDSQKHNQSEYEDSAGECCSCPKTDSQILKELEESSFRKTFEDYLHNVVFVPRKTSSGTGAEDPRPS
Chain of Insulin receptor (P06213 763-1382 limits assumed): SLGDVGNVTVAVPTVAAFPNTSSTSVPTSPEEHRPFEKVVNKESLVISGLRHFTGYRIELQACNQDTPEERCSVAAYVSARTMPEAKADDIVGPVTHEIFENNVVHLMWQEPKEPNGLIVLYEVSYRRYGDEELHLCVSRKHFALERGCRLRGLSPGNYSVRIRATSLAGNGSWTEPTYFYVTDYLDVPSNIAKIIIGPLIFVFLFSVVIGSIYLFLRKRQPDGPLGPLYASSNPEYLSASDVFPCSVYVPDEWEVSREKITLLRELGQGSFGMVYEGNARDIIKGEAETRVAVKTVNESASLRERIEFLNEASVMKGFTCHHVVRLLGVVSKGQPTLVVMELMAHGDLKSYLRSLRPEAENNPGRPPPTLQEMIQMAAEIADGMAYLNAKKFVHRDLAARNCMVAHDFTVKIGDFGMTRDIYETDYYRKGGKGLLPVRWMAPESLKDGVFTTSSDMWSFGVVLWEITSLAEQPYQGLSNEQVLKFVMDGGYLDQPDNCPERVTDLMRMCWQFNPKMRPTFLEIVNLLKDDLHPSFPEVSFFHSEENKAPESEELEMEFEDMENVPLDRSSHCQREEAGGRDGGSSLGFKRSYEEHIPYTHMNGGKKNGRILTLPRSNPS

As to `CNC(=O)Nc1ccc(-c2nc(N3CC4CCC(C3)O4)c3cnn(C4CCC5(CC4)OCCO5)c3n2)cc1`, the % of inhibition in experiment [1] was 3%. For `CC[C@@H]1[C@H](F)C(=O)N[C@@H]1COc1nccc2cc(C(N)=O)c(OC)cc12` [ZIMLOVISERTIB], the % of inhibition is 17.1% in experiment [2] (at 0.01 µM); -0.8% in experiment [2] (at 0.04 µM); -21.6% in experiment [2] (at 0.2 µM); -2.2% in experiment [2] (at 1 µM); -3% in experiment [2] (at 5 µM).

In the case of `Cc1cnc(Nc2ccc(F)cc2Cl)nc1-c1c[nH]c(C(=O)N[C@H](CO)c2cccc(Cl)c2)c1`, the % of inhibition on Insulin receptor worked out at 4%. The molecule `CCN(CC)CCCCNc1ncc2cc(-c3cc(OC)cc(OC)c3)c(NC(=O)NC(C)(C)C)nc2n1` returned a % of control in experiment [3] of 100%. Consider `C=CC(=O)Nc1cccc(C(=O)Nc2ccc(Nc3cc(-c4[nH]c(SC)nc4C)ccn3)cc2)c1`, for which the % of control in experiment [4] (at 1 µM) was determined as 132%; in experiment [4] (at 5 µM), 133%. Turning to `Cc1cc(CN)cc(C)c1-c1ncn(C)c1-c1cncn1C`, the values for the % activity in experiment [5] (at 1 µM) and in experiment [5] (at 10 µM) were over 90% and over 80%, respectively.

`CN(C(=O)c1cnn2cccnc12)c1cc2c(cc1N1CCOCC1)C(=O)N(C[C@@H](F)C(C)(C)O)C2` gave a dTM in experiment [6] of -0.1 K.

`COCC(=O)NC/C=C/c1ccc2ncnc(Nc3ccc(Oc4ccc(C)nc4)c(C)c3)c2c1` [CP-724714] came in with a % of control in experiment [7] of 100%.
